In patent publication US9695152B2, “3,4-dihydro-2H-isoquinoline-1-one and 2,3-dihydro-isoindol-1-one compounds” (Hoffmann-La Roche Inc., priority 2013, dated 2017):

Experiments:
[1] = rats with experimental heart failure; cited from earlier work
[2] = rat, cited from earlier work; for plasma aldosterone: 4 weeks (FAD286), 4 and 8 weeks (spironolactone) of treatment
CYP11B2 [3] = target: T1, CYP11B2 (Homo sapiens (Human), UniProt P19099); assay: G-402 cellular enzyme assay, human CYP11B2 (aldosterone release, HTRF); format: cell-based; conditions: G-402 cells expressing human CYP11B2, 1 μM Deoxycorticosterone
Excerpt: (§1) Herein we identified the use of the G-402 cell line as a host cell to ectopically express (transiently or stably) enzymes of the CYP11 family. Specifically we developed stable G-402 cells expressing ectopically human CYP11B1, human CYP11B2, human CYP11A1, cynmolgus CYP11B1 or cynomolgus CYP11B2 enzyme activity. Importantly the identified cell line G-402 expresses co-factors (adrenodoxin and adrenodoxin reductase) important for the activity of the CYP11 family and no relevant enzyme activity of the CYP11 family (in comparison to H295R cells) was detected in these cells. Therefore the G-402 cell line is uniquely suited as a host cell for the ectopic expression of enzymes from the CYP11 family.
(§2) G-402 cells can be obtained from ATCC (CRL-1440) and were originally derived from a renal leiomyoblastoma.
(§3) The expression plasmids contains the ORF for either human/cyno CYP11B1 or CYP11B2 under the control of a suitable promoter (CMV-promoter) and a suitable resistance marker (neomycin). Using standard techniques the expression plasmid is transfected into G-402 cells and these cells are then selected for expressing the given resistance markers. Individual cell-clones are then selected and assessed for displaying the desired enzymatic activity using 11-Deoxycorticosterone (Cyp11B2) or 11-Deoxycortisol (Cyp11B1) as a substrate.
(§4) G-402 cells expressing CYP11 constructs were established as described above and maintained in McCoy's 5a Medium Modified, ATCC Catalog No. 30-2007 containing 10% FCS and 400 μg/ml G418 (Geneticin) at 37° C. under an atmosphere of 5% CO2/95% air. Cellular enzyme assays were performed in DMEM/F12 medium containing 2.5% charcoal treated FCS and appropriate concentration of substrate (0.3-10 uM 11-Deoxycorticosterone, 11-Deoxycortisol or Corticosterone). For assaying enzymatic activity, cells were plated onto 96 well plates and incubated for 16 h. An aliquot of the supernatant is then transferred and analyzed for the concentration of the expected product (Aldosterone for CYP11B2; Cortisol for CYP11B1). The concentrations of these steroids can be determined using HTRF assays from CisBio analyzing either Aldosterone or Cortisol.
(§5) Inhibition of the release of produced steroids can be used as a measure of the respective enzyme inhibition by test compounds added during the cellular enzyme assay. The dose dependent inhibition of enzymatic activity by a compound is calculated by means of plotting added inhibitor concentrations (x-axes) vs. measured steroid/product level (y-axes). The inhibition is then calculated by fitting the following 4-parameter sigmoidal function (Morgan-Mercer-Flodin (MMF) model) to the raw data points using the least squares method:
(§6) [formula] wherein, A is the maximum y value, B is the EC50 factor determined using XLFit, C is the minimum y value and D is the slope value.
(§7) EC50 values for compounds claimed herein were tested with the G402-based assay system described. Cyp11B2 enzyme activity was tested in presence of 1 μM Deoxycorticosterone and variable amounts of inhibitors; Cyp11B1 enzyme activity was tested in presence of 1 μM Deoxycortisol and variable amounts of inhibitors.

human CYP11B1 = human CYP11B1 (Homo sapiens (Human), UniProt P15538); assay: G-402 cellular enzyme assay, human CYP11B1 (cortisol release, HTRF); format: cell-based; conditions: G-402 cells expressing human CYP11B1, 1 μM Deoxycortisol
Excerpt: as §1, §2, §3, §4, §5, §6, §7

CYP11B2 [4] = target: T1, CYP11B2; conditions: patients with primary aldosteronism, cited from earlier work

T1 sequence (P19099 25-503): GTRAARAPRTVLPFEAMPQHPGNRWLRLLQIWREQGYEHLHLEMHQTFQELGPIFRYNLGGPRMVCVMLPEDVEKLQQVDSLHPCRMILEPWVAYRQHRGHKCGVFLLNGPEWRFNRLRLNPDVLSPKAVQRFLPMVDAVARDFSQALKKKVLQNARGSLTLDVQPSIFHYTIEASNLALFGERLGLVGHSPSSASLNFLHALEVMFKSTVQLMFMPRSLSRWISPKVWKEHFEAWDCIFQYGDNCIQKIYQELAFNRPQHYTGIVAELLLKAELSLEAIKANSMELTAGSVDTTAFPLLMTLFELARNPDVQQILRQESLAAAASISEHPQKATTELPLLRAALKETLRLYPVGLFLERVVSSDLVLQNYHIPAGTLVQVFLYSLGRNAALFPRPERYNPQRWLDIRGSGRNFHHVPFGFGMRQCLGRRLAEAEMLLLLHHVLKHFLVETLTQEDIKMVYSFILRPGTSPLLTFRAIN
Chain of human CYP11B1 (P15538 25-503): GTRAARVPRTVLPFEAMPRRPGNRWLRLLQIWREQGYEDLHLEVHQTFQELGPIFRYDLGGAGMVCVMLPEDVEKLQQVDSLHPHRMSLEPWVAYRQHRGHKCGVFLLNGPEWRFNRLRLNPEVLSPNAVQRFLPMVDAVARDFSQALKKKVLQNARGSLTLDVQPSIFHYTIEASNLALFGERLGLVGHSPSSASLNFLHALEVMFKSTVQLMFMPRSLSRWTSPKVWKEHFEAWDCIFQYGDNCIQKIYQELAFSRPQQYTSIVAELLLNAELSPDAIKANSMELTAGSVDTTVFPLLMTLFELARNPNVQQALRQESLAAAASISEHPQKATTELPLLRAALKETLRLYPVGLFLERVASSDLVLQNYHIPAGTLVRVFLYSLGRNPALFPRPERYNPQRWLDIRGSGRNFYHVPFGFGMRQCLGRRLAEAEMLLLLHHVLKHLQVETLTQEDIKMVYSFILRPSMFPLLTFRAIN

Row | Compound | EC50 (CYP11B2 [3]) | EC50 (human CYP11B1) | also measured
1 | N#Cc1ccc([C@H]2CCCc3cncn32)cc1 [FAD286] |  |  | blood pressure and cardiovascular function and structure [1]: improved; plasma aldosterone [2]: reduced; angiotensin II and salt-stimulated PAI-1 mRNA expression in the aorta and the heart [2]: not
2 | CC(=O)S[C@@H]1CC2=CC(=O)CC[C@]2(C)[C@H]2CC[C@@]3(C)[C@@H](CC[C@@]34CCC(=O)O4)[C@H]12 [spironolactone] |  |  | plasma aldosterone [2]: increased; angiotensin II and salt-stimulated PAI-1 mRNA expression in the aorta and the heart [2]: enhanced
3 | O=C1c2ccc(Cl)cc2CCN1c1cncc(NC2CN(S(=O)(=O)C3CC3)C2)c1 [Example 15, 6-Chloro-2-[5-[(1-cyclopropylsulfonylazetidin-3-yl)amino]pyridin-3-yl]-3,4-dihydroisoquinolin-1-one] | 148 nM | 9560 nM | 
4 | CC1(C)c2cc(C#N)ccc2C(=O)N1c1cncc(NC2CN(C(=O)c3ncccc3Cl)C2)c1 [Example 38, 2-[5-[[1-(3-Chloropyridine-2-carbonyl)azetidin-3-yl]amino]-3-pyridyl]-3,3-dimethyl-1-oxo-isoindoline-5-carbonitrile] | 31 nM | 1200 nM | 
5 | Cc1ccncc1C(=O)N1CC(Nc2cncc(N3C(=O)c4ccc(Cl)cc4C3(C)C)c2)C1 [Example 10, 5-Chloro-3,3-dimethyl-2-[5-[[1-(4-methylpyridin-3-carbonyl)azetidin-3-yl]amino]pyridin-3-yl]isoindol-1-one] | 11 nM | 1740 nM | 
6 | Cc1cncc(C(=O)N2CC(Nc3cncc(N4CCc5cc(Cl)ccc5C4=O)c3)C2)c1 [Example 18, 6-Chloro-2-[5-[[1-(5-methylpyridine-3-carbonyl)azetidin-3-yl]amino]pyridin-3-yl]-3,4-dihydroisoquinolin-1-one] | 9 nM | 1290 nM | 
7 | CC1c2cc(Cl)ccc2C(=O)N1c1cncc(NC2CN(C(=O)c3ncccc3Cl)C2)c1 (stereo not drawn) [Example 12, 5-Chloro-2-[5-[[1-(3-chloropyridine-2-carbonyl)azetidin-3-yl]amino]pyridin-3-yl]-3-methyl-3H-isoindol-1-one] | 18 nM | 1830 nM | 
8 | Cn1cc(C(=O)N2CCC(Nc3cncc(N4C(=O)c5ccc(C#N)cc5C4(C)C)c3)CC2)cn1 [Example 40, 3,3-Dimethyl-2-[5-[[1-(1-methylpyrazole-4-carbonyl)-4-piperidyl]amino]-3-pyridyl]-1-oxo-isoindoline-5-carbonitrile] | 52 nM | 9570 nM | 
9 | CN(c1cncc(N2C(=O)c3ccc(Cl)cc3C2(C)C)c1)C1CCN(S(=O)(=O)C2CC2)C1 (single isomer, unassigned; (-)) [Example 5, (−)-5-chloro-2-[5-[[(3S or 3R)-1-cyclopropylsulfonylpyrrolidin-3-yl]-methylamino]pyridin-3-yl]-3,3-dimethylisoindol-1-one] | 1 nM | 133 nM | 
10 | CN(c1cncc(N2C(=O)c3ccc(Cl)cc3C2(C)C)c1)C1CN(S(=O)(=O)C2CC2)C1 [Example 3, 5-Chloro-2-[5-[(1-cyclopropylsulfonylazetidin-3-yl)-methylamino]pyridin-3-yl]-3,3-dimethylisoindol-1-one] | 0.4 nM | 18 nM | 
11 | Cc1ccncc1C(=O)N1CC(Nc2cncc(N3C(=O)c4ccc(Cl)cc4[C@H]3C)c2)C1 (single isomer, unassigned) [Example 26, (3S or 3R)-5-Chloro-3-methyl-2-[5-[[1-(4-methylpyridine-3-carbonyl)azetidin-3-yl]amino]-3-pyridyl]isoindolin-1-one] | 16 nM | 1910 nM | 
12 | Cc1ccncc1C(=O)N1CC(Nc2cncc(N3C(=O)c4ccc(Cl)cc4[C@H]3C)c2)C1 (single isomer, unassigned) [Example 25, (3R or 3S)-5-Chloro-3-methyl-2-[5-[[1-(4-methylpyridine-3-carbonyl)azetidin-3-yl]amino]-3-pyridyl]isoindolin-1-one] | 7 nM | 4360 nM | 
13 | Cn1ccnc1C(=O)N1CC(Nc2cncc(N3CCc4cc(Cl)ccc4C3=O)c2)C1 [Example 22, 6-Chloro-2-[5-[[1-(1-methylimidazole-2-carbonyl)azetidin-3-yl]amino]-3-pyridyl]-3,4-dihydroisoquinolin-1-one] | 23 nM | 2090 nM | 
14 | N#Cc1ccc([C@H]2CCc3cncn32)c(F)c1 [LCI699] |  |  | circulating aldosterone levels (CYP11B2 [4]; oral): significantly lower; blood pressure (CYP11B2 [4]): mildly decreased; hypokalemia (CYP11B2 [4]): corrected
15 | CC1(C)c2cc(Cl)ccc2C(=O)N1c1cncc(NC2CCCN(S(=O)(=O)C3CC3)C2)c1 (single isomer, unassigned; (-)) [Example 8, (−)-5-Chloro-2-[5-[[3S or 3R)-1-cyclopropylsulfonylpiperidin-3-yl]amino]pyridin-3-yl]-3,3-dimethylisoindol-1-one] | 365 nM | 19500 nM | 
16 | Cn1cncc1C(=O)N1CC(Nc2cncc(N3C(=O)c4ccc(C#N)cc4C3(C)C)c2)C1 [Example 39, 3,3-Dimethyl-2-[5-[[1-(3-methylimidazole-4-carbonyl)azetidin-3-yl]amino]-3-pyridyl]-1-oxo-isoindoline-5-carbonitrile] | 25 nM | 13900 nM | 
17 | O=C(c1ncccc1Cl)N1CC(Nc2cncc(N3CCc4cc(Cl)ccc4C3=O)c2)C1 [Example 17, 6-Chloro-2-[5-[[1-(3-chloropyridine-2-carbonyl)azetidin-3-yl]amino]pyridin-3-yl]-3,4-dihydroisoquinolin-1-one] | 145 nM | 1910 nM | 
18 | C[C@@H]1c2cc(Cl)ccc2C(=O)N1c1cncc(NC2CN(C(=O)c3ncccc3Cl)C2)c1 (single isomer, unassigned) [Example 27, (3R or 3S)-5-Chloro-2-[5-[[1-(3-chloropyridine-2-carbonyl)azetidin-3-yl]amino]-3-pyridyl]-3-methyl-isoindolin-1-one] | 20 nM | 1130 nM | 
19 | CC1(C)c2cc(C#N)ccc2C(=O)N1c1cncc(NC2CCN(C(=O)c3ncccc3Cl)CC2)c1 [Example 36, 2-[5-[[1-(3-Chloropyridine-2-carbonyl)-4-piperidyl]amino]-3-pyridyl]-3,3-dimethyl-1-oxo-isoindoline-5-carbonitrile] | 22 nM | 1400 nM | 
20 | CC1(C)c2cc(Cl)ccc2C(=O)N1c1cncc(NC2CN(C(=O)c3ncccc3Cl)C2)c1 [Example 9, 5-Chloro-2-[5-[[1-(3-chloropyridine-2-carbonyl)azetidin-3-yl]amino]pyridin-3-yl]-3,3-dimethylisoindol-1-one] | 7 nM | 297 nM | 
